Assay results as given in US5863915A, “Substituted 4-arylbutyric acid derivatives as matrix metalloprotease” (Bayer Corporation, priority 1997, dated 1999).

How the values were obtained:
MMP-3, MMP-9 and MMP-2 = experiment: MMP profiling assay, overall comparison of the three MMPs (Table 5 data); type: biochemical, human; settings: for MMP inhibition activity in words: substituent size on the 4-phenyl ring; for selectivity of activity among the MMP's, in words: MMP-2 and MMP-9 vs MMP-3
Excerpt: MMP Microfluorometric Profiling Assay
IC50 Determination in Microfluorometric Assay
((Control values-Treated Values)/Control Values)×100

[1] = system: human ovarian carcinoma xenografts; settings: mouse, in vivo; cited from earlier work
human colon tumor = settings: given intraperitoneally; orthotopic model in nude mice; cited from earlier work

SMILES: COc1ccc(C(=O)CC(CCN2C(=O)c3ccccc3C2=O)C(=O)O)cc1 (centres unmarked) [Compound G, 4-(4-methoxyphenyl)-4-oxo-2-(2-phthalimidoethyl)butyric acid]
- MMP inhibition activity in words (MMP-3, MMP-9 and MMP-2): activities are low

SMILES: O=C(CC(CCN1C(=O)c2ccccc2C1=O)C(=O)O)c1ccccc1 (centres unmarked) [Compound D, 4-phenyl-4-oxo-2-(2-phthalimidoethyl)butyric acid]
- MMP inhibition activity in words (MMP-3, MMP-9 and MMP-2): activities are low

SMILES: CCCCCCOc1ccc(C(=O)CC(CCN2C(=O)c3ccccc3C2=O)C(=O)O)cc1 (centres unmarked) [Example 11, 4-(4-hexyloxyphenyl)-4-oxo-2-(2-phthalimidoethyl) butyric acid]
- selectivity of activity among the MMP's, in words (MMP-3, MMP-9 and MMP-2): broad high activity

SMILES: CNC(=O)[C@H](Cc1ccccc1)NC(=O)[C@H](CC(C)C)[C@H](CSc1cccs1)C(=O)NO [batimastat]
- survival of mice bearing human ovarian carcinoma xenografts [1]: prolongs the survival of mice
- human colon tumor growth and spread (human colon tumor): inhibits human colon tumor growth and spread

SMILES: CCCCCCCCCCCCCCOc1ccc(C(=O)CC(CCN2C(=O)c3ccccc3C2=O)C(=O)O)cc1 (centres unmarked) [Compound F, 4-(4-tetradecyloxyphenyl)-4-oxo-2-(2-phthalimidoethyl)butyric acid]
- MMP inhibition activity in words (MMP-3, MMP-9 and MMP-2): activity is also low

SMILES: O=C(CC(CCN1C(=O)c2ccccc2C1=O)C(=O)O)c1ccc(Br)cc1 (centres unmarked) [Compound B, 4-(4-bromophenyl)-4-oxo-2-(2-phthalimidoethyl) butyric acid]
- MMP inhibition activity in words (MMP-3, MMP-9 and MMP-2): activities are low

SMILES: CCCCCCCOc1ccc(C(=O)CC(CCN2C(=O)c3ccccc3C2=O)C(=O)O)cc1 (centres unmarked) [Example 10, 4-(4-heptyloxyphenyl)4-oxo-2-(2-phthalimidoethyl) butyric acid]
- selectivity of activity among the MMP's, in words (MMP-3, MMP-9 and MMP-2): broad high activity
